Assay [1] relates to Vα24JαQ T cell clone GW4 (nondiabetic, IL-4+). As to the kind of experiment: Cytokine secretion (ELISA) from anti-CD3-activated Vα24JαQ T cell clone GW4, inhibitor studies. The class given is cell-based, human. To be noted: IL-4+ clone; for secretion of IFN-γ / anti-CD3-induced IL-4 secretion: plate-bound anti-CD3 1 μg/ml, 4 h, ELISA, 10 nM wortmannin; for secretion of IFN-γ: 10 μM LY294002; for anti-CD3-induced IL-4 secretion: 10 μM LY294002, 50 μM PD98059, 50 μM SB203580; for IL-4 secretion after inhibition of PI3-kinase: anti-CD3 plus PI3-kinase inhibitor, 1 ng/ml PMA or 1 μg/ml ionomycin included. The protocol:
(§1) Single, Vα24-positive, CD4/8 negative single-cell sorts were grown on irradiated allogeneic feeders at 50,000 cells per well with 5,000 cells per well irradiated (5,000 rads) 721.221 lymphoblastoid cells with 1 μg/ml PHA-P, IL-2 and IL-7 each at 10 units/ml (Boehringer Mannheim) and propagated as described (Wilson et al. (1998) Nature 391: 177-181). Clones positive for Vα24 and NKR-P1A by flow cytometry and a Vα24JαQ CDR3 T cell antigen receptor sequence were assayed for cytokine secretion in C1R/CD1s restriction experiments. For cytokine secretion and inhibitor studies, Vα24JαQ T cell clones GW4 (nondiabetic) and ME10 (diabetic) at 5×10^4 cells per well were activated with plate-bound anti-CD3 or Ig control at 1 μg/ml. Secreted IL-4 and IFN-γ were assayed by ELISA after 4 h of activation as described (Wilson et al. (1998) Nature 391: 177-181). Optimal concentrations of inhibitors previously were determined by inhibitor dose-response experiments. The concentrations of inhibitors used were 10 nM wortmannin; 10 μM LY294002, 50 μM PD98059, a mitogen-activated protein kinase kinase inhibitor, and 50 μM SB203580, a p38 kinase inhibitor. The concentrations of phorbol ester and calcium ionophore used were 1 ng/ml phorbol 12-myristate 13-acetate (PMA) and 1 μg/ml ionomycin. Cyclosporin A (CsA) was used at 5 ng/ml as a negative control, due to itS ability to prevent T cell activation. Calcium flux was determined by loading cells with indo-1 as per the manufacturer's specifications (Molecular Probes), followed by activation with anti-CD3 at 10 μg/ml. Maximal calcium flux was determined by the addition of ionomycin.
(In general: In an ELISA, binding on a coated surface is turned into a signal by an enzyme label.)

Assay [2] deals with Vα24JαQ T cell clone ME10 (diabetic, IL-4-null). Nature of the assay: Cytokine secretion (ELISA) from anti-CD3-activated Vα24JαQ T cell clone ME10, inhibitor studies. As to conditions: for secretion of IFN-γ: IL-4-null clone, plate-bound anti-CD3 1 μg/ml, 4 h, ELISA, 10 nM wortmannin, 10 μM LY294002; for defect in IL-4 secretion: diabetic-derived clone ME10, 1 ng/ml PMA, 1 μg/ml ionomycin, alone or in combination. Format: cell-based, human. The protocol:
as §1

In the case of `O=c1cc(N2CCOCC2)oc2c(-c3ccccc3)cccc12` [LY294002], the “secretion of IFN-γ” value in assay [1] and in assay [2] was “no effect” in each case. For the molecule `COc1cccc(-c2cc(=O)c3ccccc3o2)c1N` [PD98059], the “anti-CD3-induced IL-4 secretion” value in assay [1] is listed as “no effect”. For the molecule `CCCCCCCCCCCCCC(=O)O[C@@H]1[C@@H](C)[C@@]2(O)[C@@H](C=C(CO)C[C@]3(O)C(=O)C(C)=C[C@@H]23)[C@@H]2C(C)(C)[C@]12OC(C)=O` [PMA, phorbol 12-myristate 13-acetate], in assay [1], the “IL-4 secretion after inhibition of PI3-kinase” value is recorded as “rescued”. Besides, the “defect in IL-4 secretion” value in assay [2] is recorded as “Neither of these substances alone or in combination repaired the defect”. Regarding `C[S+]([O-])c1ccc(-c2nc(-c3ccncc3)c(-c3ccc(F)cc3)[nH]2)cc1` (stereo not shown) [SB203580], the “anti-CD3-induced IL-4 secretion” value in assay [1] is on record as “no effect”. Turning to `C[C@H](CCC(=O)O)C[C@H](C)C[C@H](C)C(=O)/C=C(\O)[C@H](C)C[C@H](C)C/C=C/[C@@H](C)[C@@H](O)[C@@H](C)[C@@H](O)C[C@@H]1CC[C@@](C)([C@H]2CC[C@@](C)([C@@H](C)O)O2)O1` [ionomycin], the “IL-4 secretion after inhibition of PI3-kinase” value in assay [1] is “rescued”. Besides, the “defect in IL-4 secretion” value in assay [2] was “Neither of these substances alone or in combination repaired the defect”.

As for `COC[C@H]1OC(=O)c2coc3c2[C@@]1(C)C1=C(C3=O)[C@@H]2CCC(=O)[C@@]2(C)C[C@H]1OC(C)=O` [wortmannin], the “secretion of IFN-γ” value in assay [1] and in assay [2] was “no effect” in each case.

Values taken from patent US20050164233A1, “Compositions, kits and methods for identification and modulation of type I diabetes” (priority 2000, published 2005).
